Marks after values point to notes of the source that are not given here.
Legend:
Type in all cases: cell-based, human
osteopontin = experiment: Western blot of osteopontin expression after exposure to ASOs; details: MDA-MB231, lipofectamine, 10 μM
osteonectin = experiment: Western blot of osteonectin expression after exposure to ASOs; details: for osteonectin expression in relation to untreated control (100%): single exposure, lipofectamine, 10 μM
[1] = system: MDA-MB-231 breast cancer cells; experiment: Clonogenicity assay (colony formation); details: for % Control / Mean colony no.: Experiment II, single treatment; for Mean colony no.: control 705; for inhibition of colony formation (colony growth inhibition): single exposure
Procedure: For determining the response of MDA-MB-231 colony formation to exposure with antisense oligonucleotides and erucylphospho-NNN-trimethylpropanolamine (ErPC3) the following procedure was used. MDA-MB-231 cells were treated for various periods of time (see below), harvested and counted. Cells (5000) were then transferred into semi-solid medium containing 0.8t RPMI-methylcellulose and 30% FBS. Cells were plated onto 3.5 cm Petri-dishes (1 ml/dish) (NUNC, Wiesbaden, Germany) and usual cell culture conditions (37° C., 5% CO2 in humidified air) were applied. Colony formation (clusters of 30 or more cells) was visualized by staining with 3-[4,5-dimethylthiazol-2-yl]-2,5-diphenyltetrazolium-bromide (MTT; Serva, Heidelberg, Germany) and the resulting dark blue colonies were scored by an inverted microscope after 5-7 days. At least three dishes per treatment protocol were used.
Pending on the duration of treatment, 1×10^5-3×10^5 cells were transferred onto 6 well plates (Nunc, Wiesbaden, Germany) and grown for 24 h. For transfection, ASO stock solutions were prepared in medium without FBS. According to the protocol of the manufacturer, the respective ASO stock solution was mixed with lipofectamine to allow ASO-liposome complexes to form. To 200 μl medium containing ASO quantities resulting in 10 μM (Western blot and in vivo model) and in 5, 10, or 20 μM (clonogenicity assay) final ASO-concentrations, an equal volume of medium without FBS was added containing 5, 10, or 20 μl lipofectamine, respectively. In addition to the ASO treatment, a NSO control (20 μM final concentration with 20 μl lipofectamine) and a lipofectamine control (20 μl) were used. […] After 12 h the medium was changed, and cells were further grown for 48-72 h. In the case of a sequential combination treatment this first cycle was repeated with the respective combination partner.
The alkylphosphocholine ErPC3 was synthesized and provided by Prof. H. Eibl (MPI of Biophysical Chemistry, Göttingen, FRG). For treating MDA-MB-231 cells, ErPC3 which was kept as stock solution in ethanol and PBS (10 mM; ratio of diluents 1:1; V:V), was diluted in PBS resulting in final concentrations of 10, 14, and 20 μM. The medium containing ErPC3 was changed after 24 h in all experiments and the cells were further grown for 48-72 h without ErPC3 (for details of sequential exposure see below).
Sequential combination treatment consisted of two or three treatment cycles. The two cycle treatment started either with the ASO and was followed by ErPC3 or was performed with the reverse sequence. The three cycle treatment started either with two cycles of ASO followed by ErPC3 or an initial exposure to ErPC3 was followed by two cycles with an ASO.
Colony counts are presented as mean with corresponding standard deviation. For comparison of incidences between treatment groups the x^2 test was used and for comparison of the lesion sizes the Kruskal-Wallis test was applied. P values≦0.05 were considered significant. Predicted theoretical values of combinations were calculated according to the equation: C=a×b/100, where a and b are colony counts in percent of untreated control obtained in response to single agents. For each concentration applied theoretical values were calculated and compared with the real value of the combination. In addition, isobologram and multiple drug effect analysis was examined by a suitable program (CalcuSyn, Biosoft, Ferguson, USA) to study the nature of the interaction observed. For this purpose, the dose-effect curve for each drug alone was determined based on the experimental observations using the median-effect principle; the combination index (CI) for each combination was then calculated according to the following equation:
CI=(D)1/(Dx)1+(D)2/(Dx)2+(D1)×(D2)/(Dx)1×(Dx)2
where (D)1 and (D)2 are the doses of drug 1 and drug 2 that have x effect when used in combination and (Dx)1 and (Dx)2 are the doses of drug 1 and drug 2 that have the same x effect when used alone. […]

[2] = MDA-MB231^F (growing without FBS)

Substance | osteopontin expression in relation to untreated control (100%) (osteopontin; single exposure) | osteopontin expression in relation to untreated control (100%) (osteopontin; twofold exposure) | osteonectin expression in relation to untreated control (100%) (osteonectin; MDA-MB231) [%] | osteonectin expression in relation to untreated control (100%) (osteonectin; [2]) [%] | osteonectin expression in relation to untreated control (100%) (osteonectin; MDA-MB435s) [%] | further results
5′-ACACTAACTTAAAAAACAAA-3′ (antisense ACACTAACTTAAAAAACAAA; all phosphorothioate, sugars by position and methylation of C not given here) [ASO-OPN-5] | 43% | 80% |  |  |  | 
5′-AGGTCACAGGTCTCGAAAAA-3′ (antisense AGGTCACAGGTCTCGAAAAA; all phosphorothioate, sugars by position and methylation of C not given here) [ASO-ON-6] |  |  | 52 | 44 | 56 | 
5′-ATGCGCAGGGGGAATTCGGT (antisense ATGCGCAGGGGGAATTCGGT; all phosphorothioate, sugars by position and methylation of C not given here) [ASO-ON-4] |  |  | 50 | 31 | 62 | 
5′-ATGTGGCCACAGCATCTGGG-3′ (antisense ATGTGGCCACAGCATCTGGG; all phosphorothioate, sugars by position and methylation of C not given here) [ASO-OPN-8] | 48% | 97% |  |  |  | 
5′-ATGTTATAGTTCTTCTCGAA-3′ [ASO-ON-5] |  |  | 30 | 22 | 27 | decrease of osteonectin (osteonectin; MDA-MB-231 cells): 70%
5′-CAAACATTTTAAACATTGGG-3′ (antisense CAAACATTTTAAACATTGGG; all phosphorothioate, sugars by position and methylation of C not given here) [ASO-ON-9] |  |  | 37 | 21 | 49 | 
5′-CCATCATCAAATTCTCCTAC-3′ (antisense CCATCATCAAATTCTCCTAC; all phosphorothioate, sugars by position and methylation of C not given here) [ASO-ON-2] |  |  | 61 | 17 | 64 | 
5′-CTCATGGTAGTGAGTTTTCC-3′ (antisense CTCATGGTAGTGAGTTTTCC; all phosphorothioate, sugars by position and methylation of C not given here) [ASO-OPN-1] | 25^2)3) % | 34^2)3) % |  |  |  | 
5′-GAATCCGGTACTGTGGAAGG-3′ (antisense GAATCCGGTACTGTGGAAGG; all phosphorothioate, sugars by position and methylation of C not given here) [ASO-ON-8] |  |  | 54 | 38 | 46 | 
5′-GGGGGCTGGGCAGCTGGTGG-3′ (antisense GGGGGCTGGGCAGCTGGTGG; all phosphorothioate, sugars by position and methylation of C not given here) [ASO-ON-3] |  |  | 25 | 22 | 29 | decrease of osteonectin (osteonectin; MDA-MB-231 cells): 75%; maximum inhibition of protein expression / suppression of protein level (ON) (osteonectin; MDA-MB-231 cells, Western blot): 75%; % Control ([1]; 5 μM): 92%; Mean colony no. ([1]; 5 μM): 648^6); % Control ([1]; 10 μM): 82%; Mean colony no. ([1]; 10 μM): 576^7); % Control ([1]; 20 μM): 73%; Mean colony no. ([1]; 20 μM): 514; inhibition of colony formation (colony growth inhibition) ([1]; 5 μM): 8%; inhibition of colony formation (colony growth inhibition) ([1]; 10 μM): 14%; inhibition of colony formation (colony growth inhibition) ([1]; 20 μM): 27%; inhibition of colony formation (colony growth inhibition) ([1]; 20 μM, listed as ASO-ON-03, 20 µM): 21%
5′-GGTCTGCGAAACTTCTTAGA-3′ [ASO-OPN-9] |  | 74% |  |  |  | 
5′-GTGGCCACAGCATCTGGGTA-3′ [ASO-OPN-6] (antisense GTGGCCACAGCATCTGGGTA; all phosphorothioate, sugars by position and methylation of C not given here) | 45% | 68% |  |  |  | 
5′-GTGGCCACAGCATCTGGGTA-3′ [ASO-OPN-7] (antisense GTGGCCACAGCATCTGGGTA; all phosphorothioate, sugars by position and methylation of C not given here) | 31% | 69% |  |  |  | 
5′-GTTCAGGTCCTGGGCAACGG-3 (antisense GTTCAGGTCCTGGGCAACGG; all phosphorothioate, sugars by position and methylation of C not given here) [ASO-OPN-3] | 32% | 38% |  |  |  | 
5′-TCAGGTCTGCGAAACTTCTT-3′ [ASO-OPN-10] |  | 86% |  |  |  | 
5′-TTCAGGTCCTGGGCAACGGG-3′ [ASO-OPN-2] | 45% | 60% |  |  |  | 
5′-TTGAAGTTTCTCTTGATTAA-3′ (antisense TTGAAGTTTCTCTTGATTAA; all phosphorothioate, sugars by position and methylation of C not given here) [ASO-ON-10] |  |  | 46 | 35 | 46 | 

Source: patent US20090017103A1, “Antisense oligonucleotides for prevention of metastasis formation of cancer cells” (priority 2003, published 2009)
